In general, EC50 refers to the concentration giving half of the maximal effect. Broadly, the IC50 is the point on the concentration scale where inhibition reaches its midpoint. Usually solubility stands for how much of the substance goes into solution per volume.

The target of one data set is T1, D3 receptor (Homo sapiens, UniProt P35462).
T1 construct: expressed in transfected cells
The data set is described as follows: cAMP content in cells stably expressing D3 receptors (CHO-D3, forskolin, HTRF). The data set is classed as cell-based. As to the method:
Determination of the effect of the compounds of the present invention on cAMP content in cells stably expressing D3 receptors
To determine the activation effect of the compounds on D3 receptor.
• 1. Preparation of the buffer: 1* HBSS + 20mM HEPES + 0.1% BSA + 500 µM IBMX. Complete medium: Ham's F12K + 10% fetal bovine serum +1* penicillin-streptomycin + 400 µg/mL G418. • 2. CHO-D3 cells were cultured in the complete medium at 37°C, 5% CO2. After TrypLE digestion, the cells were resuspended in the experimental buffer, and seeded into a 384-well cell culture plate at a seeding density of 8000 cells per well. • 3. The experimental buffer (1*HBSS, 0.1% BSA, 20 mM HEPES and 500 µM IBMX) was prepared. The compound was diluted with the buffer. 2.5 µL of the compound solution was added to each well, and the plate was incubated at 37°C for 10 minutes. The forskolin was diluted to 8 µM (8*) with the experimental buffer. 2.5 µL of the diluted 8* forskolin was added, and the plate was incubated at 37°C for 30 minutes. cAMP-d2 and Anti-cAMP-Eu^3+ were thawed, and diluted by 20-fold with the lysis buffer. 10 µL of cAMP-d2 was added to the experimental well, followed by the addition of 10 µL of Anti-cAMP-Eu^3+. The reaction plate was centrifuged at 200 g for 30 s at room temperature, and left to stand at 25°C for 1 h. Data was collected using Envision.
Background: TR-FRET usually uses a lanthanide donor and a delayed reading to cut background.

In another data set the target is 5-HT2A receptor (Homo sapiens, UniProt P28223). Put plainly: Calcium ion mobility in cells stably expressing 5-HT2A receptors (Flp-In-CHO-5HT2A, FLIPR). The data set is classed as cell-based. The arrangement: expressed in transfected cells. The note with it: Flp-In-CHO-5HT2A stable pool, 5HT stimulation. As to the method: Determination of the effect of the compounds of the present invention on calcium ion mobility in cells stably expressing 5-HT2A receptors
Sequence of 5-HT2A receptor (P28223 whole entry): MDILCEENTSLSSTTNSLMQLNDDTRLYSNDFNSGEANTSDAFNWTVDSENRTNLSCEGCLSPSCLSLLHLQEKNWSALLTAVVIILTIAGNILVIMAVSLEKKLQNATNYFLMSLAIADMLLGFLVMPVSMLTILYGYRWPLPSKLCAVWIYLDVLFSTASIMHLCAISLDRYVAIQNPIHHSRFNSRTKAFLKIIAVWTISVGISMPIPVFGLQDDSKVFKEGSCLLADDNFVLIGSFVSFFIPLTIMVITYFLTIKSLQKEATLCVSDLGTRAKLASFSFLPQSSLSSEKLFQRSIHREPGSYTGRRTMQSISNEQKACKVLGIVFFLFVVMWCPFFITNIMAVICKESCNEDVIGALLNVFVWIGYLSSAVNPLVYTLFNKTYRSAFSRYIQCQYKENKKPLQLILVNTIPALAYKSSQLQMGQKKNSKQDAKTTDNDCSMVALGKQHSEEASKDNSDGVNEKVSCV
To determine the inhibitory effect of the compounds on 5-HT2A receptor.
• 1) Preparation of the buffer: 1 x HBSS, 20 mM HEPES, 2.5 mM probenecid (probenecid was 400 mM stock in 1 M NaOH), 0.1% BSA. Probenecid and BSA were added fresh on the day of the experiment. Experimental buffers include dye buffer and compound dilution buffer. • 2) Cell culture medium: Ham's F-12K + 10% fetal bovine serum + 600 µg/ml hygromycin B + 1* penicillin-streptomycin. Seeding medium: Ham's F-12K + 10% dialysis serum; Assay buffer: 1 x HBSS + 20 mM HEPES; Cell line: Flp-In-CHO-5HT2A stable pool. • 3) The cells were cultured in the complete medium at 37°C, 5% CO2 to 70%-90% confluency. The cells were digested with TrypLE, seeded to the 384-well assay plate at a density of 1 × 10^4 cells/well, and incubated for 16 to 24 hours (at least overnight). • 4) 20X Component A was thawed to room temperature, diluted to 2X working concentration (containing 5mM Probenecid) with the assay buffer, and placed at room temperature for later use. • 5) The cell culture plate was taken out and left to stand at room temperature for 10 min. […] 10 µl of diluted 5HT was add to each experimental well using FLIPR Tetra, and the values were read.
The calcium signal values were determined by FLIPR. The calculated output for each sampling time point in the experiment was the ratio of the 340/510 nm wavelength signals to 380/510 nm wavelength signals. The maximum minus minimum calculation was derived from the ratio signal curve. The percent inhibition rate and ten-point concentration data were fitted to the parametric nonlinear logistic equation by using GraphPad prism to calculate the IC50 values of the compound.

A short description of data set [1]: Solubility of hydrochloride and free base in different media (37°C, 24 hours, HPLC). The data set is classed as physicochemical. To be noted: thermodynamic from solid. On the procedure: The glass bottle was shaken overnight on an electrothermal constant temperature shaking tank, and the temperature was set to 37°C. After 24 hours, the sample solution was filtered with a 0.45 µm mixed water fiber filter membrane, and the subsequent filtrate was taken to test its content by HPLC. HPLC detection methods are described in "Stability Study Conditions". Table 24 Solubility of hydrochloride and free base in different pH buffers

≈ marks a conversion by molar mass, not a printed value.

T1 sequence (P35462 whole entry): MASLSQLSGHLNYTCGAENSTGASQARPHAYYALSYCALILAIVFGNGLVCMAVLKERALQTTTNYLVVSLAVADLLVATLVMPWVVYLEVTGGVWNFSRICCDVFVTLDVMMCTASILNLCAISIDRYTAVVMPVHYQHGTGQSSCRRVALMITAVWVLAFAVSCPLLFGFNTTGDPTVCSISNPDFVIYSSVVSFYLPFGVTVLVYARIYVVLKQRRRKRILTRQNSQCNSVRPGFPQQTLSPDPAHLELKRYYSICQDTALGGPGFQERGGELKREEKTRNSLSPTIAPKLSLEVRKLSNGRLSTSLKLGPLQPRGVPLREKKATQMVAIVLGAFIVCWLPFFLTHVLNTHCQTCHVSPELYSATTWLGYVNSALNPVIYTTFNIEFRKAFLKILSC

On D3 receptor, `O=C(NC1CC(CCN2CCN(c3cccc(Cl)c3Cl)CC2)C1)c1cccnc1` (stereo not shown) [Example 3, N-(3-(2-(4-(2,3-Dichlorophenyl)piperazin-1-yl)ethyl)cyclobutyl)nicotinamide] gave an EC50 of 1.2 nM. The IC50 at 5-HT2A receptor was 48 nM.
Molecule `COCC(=O)NC1CC(CCN2CCN(c3cccc(Cl)c3Cl)CC2)C1` (stereo not shown) [Example 2, N-(3-(2-(4-(2,3-Dichlorophenyl)piperazin-1-yl)ethyl)cyclobutyl)-2-methoxyacetamide] returned an EC50 at D3 receptor of 2.2 nM. For the same molecule, the IC50 on 5-HT2A receptor is 16.7 nM.
`O=C(NC1CC(CCN2CCN(c3cccc(Cl)c3Cl)CC2)C1)c1ccon1` (stereo not shown) [Example 17, N-(3-(2-(4-(2,3-Dichlorophenyl)piperazin-1-yl)ethyl)cyclobutyl)isoxazole-3-carboxamide] displayed an EC50 at D3 receptor of 3.1 nM. For the same molecule, the 50% inhibitory concentration (IC50) at 5-HT2A receptor was found to be 8.92 nM.
At D3 receptor, `Cc1ccc(C(=O)NC2CC(CCN3CCN(c4cccc(Cl)c4Cl)CC3)C2)o1` (stereo not shown) [Example 1, N-(3-(2-(4-(2,3-Dichlorophenyl)piperazin-1-yl)ethyl)cyclobutyl)-5-methylfuran-2-c arboxamide] yielded an EC50 of 3.5 nM. Also, at 5-HT2A receptor, the IC50 is 8.08 nM.
For `O=C(NC1CC(CCN2CCN(c3cccc(Cl)c3Cl)CC2)C1)c1ccno1` (stereo not shown) [Example 15, N-(3-(2-(4-(2,3-Dichlorophenyl)piperazin-1-yl)ethyl)cyclobutyl)isoxazole-5-carboxamide], in that order: 1.7 nM and 8.06 nM.
On the same counts, the results for `N#CC1(C(=O)NC2CC(CCN3CCN(c4cccc(Cl)c4Cl)CC3)C2)CC1` (stereo not shown) [Example 21, 1-Cyano-N-(3-(2-(4-(2,3-dichlorophenyl)piperazin-1-yl)ethyl)cyclobutyl)cyclopropane-1-carboxamide] are 3.3 nM and 33.5 nM.
Regarding `COC1CN(C(=O)NC2CC(CCN3CCN(c4cccc(Cl)c4Cl)CC3)C2)C1` (stereo not shown) [Example 5, N-(3-(2-(4-(2,3-Dichlorophenyl)piperazin-1-yl)ethyl)cyclobutyl)-3-methoxyazetidine-1-carboxamide], the EC50 at D3 receptor worked out at 2.4 nM. Further, the IC50 on 5-HT2A receptor stood at 22.1 nM.
In the case of `O=C(N[C@H]1C[C@H](CCN2CCN(c3cccc(Cl)c3Cl)CC2)C1)c1ncco1` [crystal form B of free base], the solubility at 24 h in data set [1] (aqueous buffer, Buffer pH 3) was greater than 1000 µg/mL; in data set [1] (aqueous buffer, Buffer pH 4), greater than 1000 µg/mL; in data set [1] (aqueous buffer, Buffer pH 5), greater than 1000 µg/mL; in data set [1] (aqueous buffer, Buffer pH 6), 388 µg/mL (≈ 917 µM); in data set [1] (aqueous buffer, Buffer pH 7), 44 µg/mL (≈ 104 µM); in data set [1] (aqueous buffer, Buffer pH 8), 2 µg/mL (≈ 4.72 µM). For the same molecule, the solubility at 24 h in data set [1] (fassgf or other biorelevant, FaSSCoF) was greater than 1000 µg/mL; in data set [1] (fassgf or other biorelevant, FaSSGF) it was 154 µg/mL (≈ 364 µM); in data set [1] (fassgf or other biorelevant, FeSSCoF) it was greater than 1000 µg/mL; in data set [1] (simulated gastric fluid, Buffer pH 1), greater than 1000 µg/mL; in data set [1] (simulated gastric fluid, Buffer pH 2), greater than 1000 µg/mL; in data set [1] (FaSSIF) it was greater than 1000 µg/mL. Further, the solubility at 24 h in data set [1] (FeSSIF) is greater than 1000 µg/mL; in data set [1] (water, H2O) it was 125 µg/mL (≈ 295 µM).
On D3 receptor, `O=C(NC1CC(CCN2CCN(c3cccc(Cl)c3Cl)CC2)C1)c1cccc2ncccc12` (stereo not shown) [Example 19, N-(3-(2-(4-(2,3-Dichlorophenyl)piperazin-1-yl)ethyl)cyclobutyl)quinoline-5-carbox amide] yielded an EC50 of 1 nM. For the same molecule, on 5-HT2A receptor, the IC50 turned out to be 7.37 nM.
`Cc1cc(C(=O)NC2CC(CCN3CCN(c4cccc(Cl)c4Cl)CC3)C2)on1` (stereo not shown) [Example 14, N-(3-(2-(4-(2,3-Dichlorophenyl)piperazin-1-yl)ethyl)cyclobutyl)-3-methylisoxazole-5-carboxamide]: a half-maximal effect at D3 receptor (EC50) was put at 1.2 nM. The IC50 at 5-HT2A receptor was 13.4 nM.
Turning to `Cc1nc(C(=O)NC2CC(CCN3CCN(c4cccc(Cl)c4Cl)CC3)C2)co1` (stereo not shown) [Example 18, N-(3-(2-(4-(2,3-Dichlorophenyl)piperazin-1-yl)ethyl)cyclobutyl)-2-methyloxazole-4-carboxamide], on D3 receptor, the EC50 worked out at 3.9 nM. Further, the IC50 on 5-HT2A receptor turned out to be 6.4 nM.
On the same counts, the results for `Cc1cc(CC(=O)NC2CC(CCN3CCN(c4cccc(Cl)c4Cl)CC3)C2)on1` (stereo not shown) [Example 10, N-(3-(2-(4-(2,3-Dichlorophenyl)piperazin-1-yl)ethyl)cyclobutyl)-2-(3-methylisoxazol-5-yl)acetamide] are 1.2 nM and 8.9 nM.
At D3 receptor, `Cc1cnoc1C(=O)NC1CC(CCN2CCN(c3cccc(Cl)c3Cl)CC2)C1` (stereo not shown) [Example 13, N-(3-(2-(4-(2,3-Dichlorophenyl)piperazin-1-yl)ethyl)cyclobutyl)-4-methylisoxazole-5-carboxamide] had an EC50 of 3.4 nM. Further, the IC50 on 5-HT2A receptor turned out to be 10.9 nM.
Consider `Cc1ncc(C(=O)NC2CC(CCN3CCN(c4cccc(Cl)c4Cl)CC3)C2)o1` (stereo not shown) [Example 16, N-(3-(2-(4-(2,3-Dichlorophenyl)piperazin-1-yl)ethyl)cyclobutyl)-2-methyloxazole-5-carboxamide], for which the EC50 at D3 receptor worked out at 0.7 nM. Moreover, the IC50 on 5-HT2A receptor is 5.78 nM.

(Values after patent EP4332093A1, “SALT CONTAINING PIPERAZINE POLYCYCLIC DERIVATIVE, CRYSTAL FORM THEREOF, PREPARATION METHOD THEREFOR, AND USE THEREOF” (Shanghai Hansoh Biomedical Co., Ltd., priority 2021, dated 2022).)
